In patent US11154563B2, “Immunoproteasome inhibitors” (Principia Biopharma Inc., priority 2017, dated 2021):

Columns and labels:
[1] = molecular target: immunoproteasome LMP7/B5i subunit (Homo sapiens, UniProt P20618+P28062); assay: Caliper-based proteasome enzymatic activity assay, LMP7; format: biochemical; conditions: human recombinant immunoproteasome 0.3 nM, FAM-peptide substrate 1 μM, 3 h at rt
Outline: (§1)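 Recombinant human immunoproteasome or constitutive proteasome (0.3 nM) with 1 μM FAM-peptide in 20 mM Hepes pH 7.4, 0.015% SDS, 0.01% BSA; LMP7/β5c ran 3 h at rt and were stopped with 5 uM carfilzomib, LMP2 ran 2 h and was stopped with 6.7 uM ixazomib. Cleaved product quantified by microfluidic separation; IC50 from percent inhibition.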

[2] = molecular target: constitutive proteasome β5c unit (Homo sapiens, UniProt P20618+P28074); assay: Caliper-based proteasome enzymatic activity assay, β5c; format: biochemical; conditions: human recombinant constitutive proteasome 0.3 nM, FAM-peptide substrate 1 μM, 3 h at rt; read-out: β5c subunit IC50
Outline: as §1

IC50 [1] | IC50 [2] | Compound
1.7 nM | > 5000 nM | CC(C)(C=C(C#N)C(=O)N1CCCC[C@@H]1COC(=O)N[C@@H](CCc1ccccc1)B(O)O)N1CCC(F)(F)C1 [Example 101, ((R)-1-(((((R)-1-(2-cyano-4-(3,3-difluoropyrrolidin-1-yl)-4-methylpent-2-enoyl)piperidin-2-yl)methoxy)carbonyl)amino)-3-phenylpropyl)boronic acid]
5.3 nM | 2310 nM | CC(C)(/C=C(/C#N)C(=O)N1CCCC[C@@H]1COC(=O)N[C@@H](Cc1ccccc1)B(O)O)N1CCC(F)(F)C1 [Example 103, ((R)-1-(((((R)-1-((Z)-2-cyano-4-(3,3-difluoropyrrolidin-1-yl)-4-methylpent-2-enoyl)piperidin-2-yl)methoxy)carbonyl)amino)-2-phenylethyl)boronic acid]
1.4 nM | > 5000 nM | CC(C)(C=C(C#N)C(=O)N1C[C@@H]2C[C@@H]2[C@@H]1COC(=O)N[C@@H](CCc1ccccc1)B(O)O)N1CCC(F)(F)C1 [Example 104, ((R)-1-(((((1S,2R,5R)-3-(2-cyano-4-(3,3-difluoropyrrolidin-1-yl)-4-methylpent-2-enoyl)-3-azabicyclo[3.1.0]hexan-2-yl)methoxy)carbonyl)amino)-3-phenylpropyl)boronic acid]
5.2 nM | 2240 nM | CC(C)(C=C(C#N)C(=O)N1CCCC[C@@H]1COC(=O)N[C@@H](Cc1cccc2ccccc12)B(O)O)N1CCC(F)(F)C1 [Example 106, ((R)-1-(((((R)-1-(2-cyano-4-(3,3-difluoropyrrolidin-1-yl)-4-methylpent-2-enoyl)piperidin-2-yl)methoxy)carbonyl)amino)-2-(naphthalen-1-yl)ethyl)boronic acid]
111 nM | > 5000 nM | CC(C)(C=C(C#N)C(=O)N1CCCC[C@@H]1COC(=O)N[C@@H](Cc1ccccc1C#N)B(O)O)N1CCC(F)(F)C1 [Example 107, ((R)-1-(((((R)-1-(2-cyano-4-(3,3-difluoropyrrolidin-1-yl)-4-methylpent-2-enoyl)piperidin-2-yl)methoxy)carbonyl)amino)-2-(2-cyanophenyl)ethyl)boronic acid]
0.9 nM | 830 nM | CC(C)(C=C(C#N)C(=O)N1C[C@@H]2C[C@@H]2[C@@H]1COC(=O)N[C@@H](Cc1ccc(F)cc1)B(O)O)N1CCC(F)(F)C1 [Example 108]
22 nM | > 5000 nM | CC(C)(C=C(C#N)C(=O)N1CCCC[C@@H]1COC(=O)N[C@@H](Cc1ccccc1C(F)(F)F)B(O)O)N1CCC(F)(F)C1 [Example 110, ((R)-1-(((((R)-1-(2-cyano-4-(3,3-difluoropyrrolidin-1-yl)-4-methylpent-2-enoyl)piperidin-2-yl)methoxy)carbonyl)amino)-2-(2-(trifluoromethyl)phenyl)ethyl)boronic acid]
> 5000 nM | > 5000 nM | CC(C)(C=C(C#N)C(=O)N1CCCC[C@@H]1COC(=O)N[C@@H](Cc1ccc(F)cc1F)B(O)O)N1CCC(F)(F)C1 [Example 113, ((R)-1-(((((R)-1-(2-cyano-4-(3,3-difluoropyrrolidin-1-yl)-4-methylpent-2-enoyl)piperidin-2-yl)methoxy)carbonyl)amino)-2-(2,4-difluorophenyl)ethyl)boronic acid]
62 nM | > 5000 nM | Cc1ccc(C[C@H](NC(=O)OC[C@H]2[C@H]3C[C@H]3CN2C(=O)C(C#N)=CC(C)(C)N2CCC(F)(F)C2)B(O)O)cc1 [Example 116, ((R)-1-(((((1S,2R,5R)-3-(2-cyano-4-(3,3-difluoropyrrolidin-1-yl)-4-methylpent-2-enoyl)-3-azabicyclo[3.1.0]hexan-2-yl)methoxy)carbonyl)amino)-2-(p-tolyl)ethyl)boronic acid]
1.5 nM | 4180 nM | CC(C)(C=C(C#N)C(=O)N1CCCC[C@@H]1COC(=O)N[C@@H](Cc1ccc(C#N)cc1)B(O)O)N1CCC(F)(F)C1 [Example 122, ((R)-1-(((((R)-1-(2-cyano-4-(3,3-difluoropyrrolidin-1-yl)-4-methylpent-2-enoyl)piperidin-2-yl)methoxy)carbonyl)amino)-2-(4-cyanophenyl)ethyl)boronic acid]
2.2 nM | 550 nM | CC(C)(C=C(C#N)C(=O)N1CCCC[C@@H]1COC(=O)N[C@@H](Cc1ccc(S(C)(=O)=O)cc1)B(O)O)N1CCC(F)(F)C1 [Example 124, ((R)-1-(((((R)-1-(2-cyano-4-(3,3-difluoropyrrolidin-1-yl)-4-methylpent-2-enoyl)piperidin-2-yl)methoxy)carbonyl)amino)-2-(4-(methylsulfonyl)phenyl)ethyl)boronic acid]
1.6 nM | 2860 nM | COC(=O)N1CCN(C(C)(C)C=C(C#N)C(=O)N2CCCC[C@@H]2COC(=O)N[C@@H](Cc2ccccc2)B(O)O)CC1 [Example 125, ((R)-1-(((((R)-1-(2-cyano-4-(4-(methoxycarbonyl)piperazin-1-yl)-4-methylpent-2-enoyl)piperidin-2-yl)methoxy)carbonyl)amino)-2-phenylethyl)boronic acid]
21 nM | > 5000 nM | CC(C)(C=C(C#N)C(=O)N1CCCC[C@@H]1COC(=O)N[C@@H](Cc1ccccc1)B(O)O)N1CCN(C2COC2)CC1 [Example 126, ((R)-1-(((((R)-1-(2-cyano-4-methyl-4-(4-(oxetan-3-yl)piperazin-1-yl)pent-2-enoyl)piperidin-2-yl)methoxy)carbonyl)amino)-2-phenylethyl)boronic acid]

Second part, the molecule before the results:

Compound | IC50 [1] | IC50 [2]
C=CC(=O)N1C[C@@H](F)C[C@@H]1COC(=O)N[C@@H](Cc1ccccc1)B(O)O [Example 100, ((R)-1-(((((2R,4S)-1-acryloyl-4-fluoropyrrolidin-2-yl)methoxy)carbonyl)amino)-2-phenylethyl)boronic acid] | 21 nM | 530 nM
C=CC(=O)N1C[C@@H]2C[C@@H]2[C@@H]1COC(=O)N[C@@H](Cc1ccc(F)cc1)B(O)O [Example 109, ((R)-1-(((((1S,2R,5R)-3-acryloyl-3-azabicyclo[3.1.0]hexan-2-yl)methoxy)carbonyl)amino)-2-(4-fluorophenyl)ethyl)boronic acid] | 6.4 nM | 3320 nM
C=CC(=O)N1CCS(=O)(=O)C[C@@H]1COC(=O)N[C@@H](Cc1coc2ccccc12)B(O)O [Example 111] | 4.2 nM | 90 nM
C=CC(=O)N1CCC(F)(F)C[C@@H]1COC(=O)N[C@@H](Cc1coc2ccccc12)B(O)O [Example 112, ((R)-1-(((((R)-1-acryloyl-4,4-difluoropiperidin-2-yl)methoxy)carbonyl)amino)-2-(benzofuran-3-yl)ethyl)boronic acid] | 2.5 nM | 95 nM
CC(C)(C=C(C#N)C(=O)N1C[C@@H]2C[C@@H]2[C@@H]1COC(=O)N[C@@H](Cc1ccc(C(F)(F)F)cc1)B(O)O)N1CCOCC1 [Example 114] | 2.3 nM | 2540 nM
C=CC(=O)N1C[C@@H]2C[C@@H]2[C@@H]1COC(=O)N[C@@H](Cc1ccc(C(F)(F)F)cc1)B(O)O [Example 115, ((R)-1-(((((1S,2R,5R)-3-acryloyl-3-azabicyclo[3.1.0]hexan-2-yl)methoxy)carbonyl)amino)-2-(4-(trifluoromethyl)phenyl)ethyl)boronic acid] | 2.6 nM | 2930 nM
CC(C)(C=C(C#N)C(=O)N1CCC[C@]1(C)COC(=O)N[C@@H](Cc1coc2ccccc12)B(O)O)N1CCC(F)(F)C1 [Example 117, ((R)-2-(benzofuran-3-yl)-1-(((((R)-1-(2-cyano-4-(3,3-difluoropyrrolidin-1-yl)-4-methylpent-2-enoyl)-2-methylpyrrolidin-2-yl)methoxy)carbonyl)amino)ethyl)boronic acid] | 0.8 nM | 640 nM
CC(C)(C)C[C@H](NC(=O)OC[C@@]1(C)CCCN1C(=O)C(C#N)=CC(C)(C)N1CCC(F)(F)C1)B(O)O [Example 118, ((R)-1-(((((R)-1-(2-cyano-4-(3,3-difluoropyrrolidin-1-yl)-4-methylpent-2-enoyl)-2-methylpyrrolidin-2-yl)methoxy)carbonyl)amino)-3,3-dimethylbutyl)boronic acid] | 1.5 nM | 570 nM
CC1(C=C(C#N)C(=O)N2C[C@@H]3C[C@@H]3[C@@H]2COC(=O)N[C@@H](Cc2ccc(F)cc2)B(O)O)CCOCC1 [Example 119, ((R)-1-(((((1S,2R,5R)-3-(2-cyano-3-(4-methyltetrahydro-2H-pyran-4-yl)acryloyl)-3-azabicyclo[3.1.0]hexan-2-yl)methoxy)carbonyl)amino)-2-(4-fluorophenyl)ethyl)boronic acid] | > 5000 nM | > 5000 nM
CC(C)(C=C(C#N)C(=O)N1CCC[C@]1(C)COC(=O)N[C@@H](Cc1ccc(F)cc1)B(O)O)N1CCC(F)(F)C1 [Example 120, ((R)-1-(((((R)-1-(2-cyano-4-(3,3-difluoropyrrolidin-1-yl)-4-methylpent-2-enoyl)-2-methylpyrrolidin-2-yl)methoxy)carbonyl)amino)-2-(4-fluorophenyl)ethyl)boronic acid] | 530 nM | > 5000 nM
C=C(F)C(=O)N1CCC[C@]1(C)COC(=O)N[C@@H](Cc1ccc(F)cc1)B(O)O [Example 121, ((R)-1-(((((R)-1-(2-fluoroacryloyl)-2-methylpyrrolidin-2-yl)methoxy)carbonyl)amino)-2-(4-fluorophenyl)ethyl)boronic acid] | 1.9 nM | 1750 nM
CC(C)(C=C(C#N)C(=O)N1C[C@@H]2C[C@@H]2[C@@H]1COC(=O)N[C@@H](Cc1ccc(F)cc1)B(O)O)N1CCOCC1 [Example 123, ((R)-1-(((((1S,2R,5R)-3-(2-cyano-4-methyl-4-morpholinopent-2-enoyl)-3-azabicyclo[3.1.0]hexan-2-yl)methoxy)carbonyl)amino)-2-(4-fluorophenyl)ethyl)boronic acid] | 550 nM | > 5000 nM
